# Assay results taken from US11419335B2, “N-arylated analogues and uses thereof” (University of Florida Research Foundation, Incorporated, priority 2016, dated 2022).
# Like-named read-outs stand apart in the source and are kept apart here. Marks after values point to notes of the source that are not given here.
# How the values were obtained:
# [1] = test system: methicillin-resistant Staphylococcus epidermidis (MRSE strain ATCC 35984); assay: MIC broth microdilution, MRSE 35984; assay type: cell-based
# Summary of the method: (§1)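 CLSI broth microdilution in Luria Broth: eleven two-fold compound dilutions (0.10 to 100 μM), each well inoculated with ~10^5 log-phase cells. MIC is the lowest concentration preventing growth after 16 to 18 hours at 37° C, supported by OD600. DMSO vehicle, top 1% v/v.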
# [2] = test system: human red blood cells (hRBC); assay: Hemolysis of red blood cells; assay type: cell-based; conditions: for HC50: Table 1A
# Summary of the method: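 hRBCs (2% suspension) exposed to compounds at 0.2–200 μM (ten-point dose-response) for 1 h at 37 °C; after centrifugation, haemoglobin release read as supernatant OD at 405 nm. DMSO set as 0% and Triton X as 100% haemolysis; HC50 from dose-response curves, three independent experiments.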
# [3] = test system: MRSA BAA-1707; assay: MIC broth microdilution, MRSA BAA-1707; assay type: cell-based, Staphylococcus aureus; conditions: for MIC MRSA 1707: Table 4
# Summary of the method: (§2)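 Broth microdilution per CLSI, with eleven two-fold serial compound dilutions in Luria Broth spanning 0.10 to 100 μM. DMSO vehicle control topped at 1% v/v; at least three independent experiments.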
# [4] = test system: Acinetobacter baumannii (ATCC 1794); assay: MIC broth microdilution, A. baumannii 1794; assay type: cell-based; conditions: for MIC A. baumannii 1794: in µM
# Summary of the method: as §1
# [5] = test system: Pseudomonas aeruginosa (PAO1); assay: MIC broth microdilution, PAO1; assay type: cell-based
# Summary of the method: as §1
# [6] = test system: methicillin-resistant Staphylococcus aureus MRSA-2 (clinical isolate); assay: MIC broth microdilution, MRSA-2; assay type: cell-based
# Summary of the method: as §1
# [7] = test system: vancomycin-resistant Enterococcus faecium (VRE strain ATCC 700221); assay: MIC broth microdilution, VRE 700221; assay type: cell-based
# Summary of the method: as §1
# [8] = test system: MRSA BAA-44; assay: MIC broth microdilution, MRSA BAA-44; assay type: cell-based, Staphylococcus aureus
# Method: (§3) The minimum inhibitory concentration (MIC) for each tested compound was determined by the broth microdilution method as recommended by the Clinical and Laboratory Standards Institute (CLSI). In a 96-well plate, eleven two-fold serial dilutions of each compound were made in a final volume of 100 μL Luria Broth. Each well was inoculated with ˜10^5 bacterial cells at the initial time of incubation, prepared from a fresh log phase culture (OD600 of 0.5 to 1.0 depending on bacterial strain). […] (MIC values were supported by spectrophotometric readings at OD600). DMSO served as our vehicle and negative control in each microdilution MIC assay. DMSO was serially diluted with a top concentration of 1% v/v.
# (§4) Each well was inoculated with ˜10^5 bacterial cells at the initial time of incubation, prepared from a fresh log phase culture (OD600 of 0.5 to 1.0 depending on bacterial strain). […] The concentration range tested for each compound during this study was 0.10 to 100 μM. DMSO served as our vehicle and negative control in each microdilution MIC assay. DMSO was serially diluted with a top concentration of 1% v/v. All MIC values were obtained from a minimum of three independent experiments.
# [9] = test system: SA-138 (clinical isolate); assay: MIC broth microdilution, SA-138; assay type: cell-based, Staphylococcus aureus
# Method: as §3, §4
# [10] = test system: MRSA-1 (clinical isolate); assay: MIC broth microdilution, MRSA-1; assay type: cell-based, Staphylococcus aureus
# Method: as §3, §4
# [11] = test system: methicillin-sensitive Staphylococcus aureus ATCC 29213; assay: MIC broth microdilution, S. aureus 29213; assay type: cell-based
# Summary of the method: as §2
# [12] = test system: SA-156 (clinical isolate); assay: MIC broth microdilution, SA-156; assay type: cell-based, Staphylococcus aureus
# Method: as §3, §4
# [13] = test system: SA-129 (clinical isolate); assay: MIC broth microdilution, SA-129; assay type: cell-based, Staphylococcus aureus
# Method: as §3, §4
# [14] = test system: SA-147 (clinical isolate); assay: MIC broth microdilution, SA-147; assay type: cell-based, Staphylococcus aureus
# Method: as §3, §4
# [15] = Table 4, concentration required to lyse 50% of red blood cells
# [16] = Table 1B, read-out: MIC MRSA BAA-1707
# [17] = Table 2A, read-out: MRSA BAA-1707 MIC
# [18] = Table 3, read-out: MIC MRSA BAA-1707
Compound,MIC MRSE 35984 ([1]; Table 4),MIC MRSA 1707 [3] [µM],MIC A. bau. 1794 ([4]; Table 4) [µM],MIC PAO1 ([5]; Table 4) [µM],MIC MRSA-2 ([6]; Table 4),MIC VRE 700221 ([7]; Table 4) [µM],HC50 [2] [µM],"RBC HC50 [2, 15] [µM]","MIC [3, 16] [µM]","MIC [3, 17] [µM]","MIC [3, 18] [µM]",MIC ([8]; Table 1B) [µM],MIC ([8]; Table 3) [µM],MIC ([12]; Table 1B) [µM],MIC ([12]; Table 3) [µM],MIC ([13]; Table 1B) [µM],MIC ([13]; Table 3) [µM],MIC SA-147 ([14]; Table 1B),MIC SA-147 ([14]; Table 3),further results
"CCCCCCCCCCCCCCCC[N+](C)(C)Cc1ccccc1.[Cl-] [BAC-16, reference compound]",1.56 µM,1.56,6.25,>100,1.56 µM,3.13,,,,,,,,,,,,,,RBC HC50 [2]: 21.8 µM
CCCCCCCCCCCCCCCCn1cc[n+](C)c1C.[I-] [Compound 8],,0.39,,,,,13,13.0,0.39,0.39,0.39,1.56,1.56,1.56,1.56,1.56,1.56,1.17^a μM,1.17^a μM,MIC MRSE 35984 [1]: 1.17a micromolar; MIC S. epidermidis MRSE 35984 [1]: 1.17^a; MRSE 35984 MIC [1]: 1.17^a μM; MIC A. bau. 1794 [4]: 12.5 µM; MIC A. baumannii 1794 [4]: 12.5; MIC SA-138 ([9]; Table 1B): 2.35^a μM; MIC SA-138 ([9]; Table 3): 2.35^a μM; MIC ([10]; Table 1B): 1.56 µM; MIC ([10]; Table 3): 1.56 µM; MIC ([11]; Table 1B): 1.56 µM; MIC ([11]; Table 3): 1.56 µM; MRSA-2 MIC [6]: 1.17^a μM; MIC E. faecium VRE 700221 [7]: 2.35^a; MIC VRE 700221 [7]: 2.35a micromolar; VRE MIC [7]: 2.35^a μM
CCCCCCCCCCCCCCCCn1cc[n+](CCO)c1C.[Br-] [Compound 11],0.59a micromolar,0.39,6.25,>100,1.17a micromolar,1.56,6.8,6.8,0.39,0.39,0.39,1.56,1.56,1.56,1.56,1.56,1.56,1.17^a μM,1.17^a μM,"MIC S. epidermidis MRSE 35984 ([1]; Table 1A): 0.59^a; MRSE 35984 MIC ([1]; Table 2A): 0.59^a μM; MIC A. baumannii 1794 ([4]; Table 1A): 6.25; MIC ([9]; Table 1B): 1.56 µM; MIC ([9]; Table 3): 1.56 µM; MIC MRSA-1 ([10]; Table 1B): 1.17^a μM; MIC MRSA-1 ([10]; Table 3): 1.17^a μM; MIC S. aureus 29213 ([11]; Table 1B): 1.17^a μM; MIC S. aureus 29213 ([11]; Table 3): 1.17^a μM; MIC PAO1 ([5]; Table 1A): > 100 µM; MIC MRSA-2 ([6]; Table 1A): 1.56 µM; MIC ([6]; Table 1B, read-out: MIC MRSA-2): 0.78 µM; MRSA-2 MIC ([6]; Table 2A): 1.56 µM; MIC MRSA-2 ([6]; Table 3): 1.17^a μM; MIC E. faecium VRE 700221 ([7]; Table 1A): 1.56 µM; VRE MIC ([7]; Table 2A): 1.56 µM"
